Experiment [1] has as its target T1, E. coli GroEL/ES (Escherichia coli, UniProt P0A6F5).
T1 construct: made in house; host or cells: GroEL in NEB 5-alpha E. coli; GroES in E. coli BL21 (DE3)
The experiment can be described thus: GroEL/ES-mediated dMDH refolding assay in the presence of E. coli NfsB nitroreductase. It is filed as biochemical. As to the method:
Evaluating compounds for inhibition in the GroEL/ES-mediated dMDH refolding assay and native MDH activity counter-screen in the presence of E. coli NfsB nitroreductase. These assays were performed nearly identically to those mentioned above, but with a couple distinct modifications. For both assays, 10 μg/mL of the E. coli NfsB nitroreductase enzyme (Sigma product #N9284) was added to the initial GroEL/ES-dMDH solution. For the GroEL/ES-dMDH refolding assay, after stamping with compounds, 10 μL of a 2.4 mM NADH solution was added, followed by a 10 minute incubation period at 37° C. to bioactivate the nitrofuran analogs. The remainder of the assay was conducted as in our standard protocol where no NfsB nitroreductase was present. […] For the native MDH activity counter-screen in the presence of E. coli NfsB nitroreductase, the assay was performed as described above for the GroEL/ES-dMDH refolding assay with NfsB; however, compound addition to the assay plates was conducted after the EDTA quench step, followed by a 10 minute incubation period at 37° C. to bioactivate the nitrofuran analogs. […] Results presented represent the averages of IC50 values obtained from at least four replicates in each assay.
Evaluating analogs for inhibiting GroEL/ES-mediated substrate refolding functions in the presence of the E. coli NfsB type-1 nitroreductase. […] However, our standard GroEL/ES-mediated refolding assays and native substrate reporter counter-screens were conducted without nitroreductases present.

The target in experiment [2] is T2, native MDH (Sus scrofa, UniProt P00346).
T2 sequence (P00346 25-338): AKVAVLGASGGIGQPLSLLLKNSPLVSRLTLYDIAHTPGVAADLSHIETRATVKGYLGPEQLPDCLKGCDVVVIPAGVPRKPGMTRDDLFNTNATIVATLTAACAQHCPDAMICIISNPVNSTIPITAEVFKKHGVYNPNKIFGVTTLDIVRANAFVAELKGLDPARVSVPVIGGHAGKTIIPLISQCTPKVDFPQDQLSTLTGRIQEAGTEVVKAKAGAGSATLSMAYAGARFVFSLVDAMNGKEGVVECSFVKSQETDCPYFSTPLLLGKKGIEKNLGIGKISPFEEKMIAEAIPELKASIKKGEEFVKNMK
The experiment can be described thus: native MDH activity counter-screen in the presence of E. coli NfsB nitroreductase. The class given is biochemical, pig. Particulars: with E. coli NfsB nitroreductase; read-out: Native MDH Activity w/NfsB IC50. Here is the method: Evaluating compounds for inhibition in the GroEL/ES-mediated dMDH refolding assay and native MDH activity counter-screen in the presence of E. coli NfsB nitroreductase. These assays were performed nearly identically to those mentioned above, but with a couple distinct modifications. […] The remainder of the assay was conducted as in our standard protocol where no NfsB nitroreductase was present. […] Results presented represent the averages of IC50 values obtained from at least four replicates in each assay.
In general terms: The purpose of a counterscreen is to sort out artefacts and off-target activity.

In experiment [3] the test system is Enterococcus faecium strain NCTC 7171 (ATCC #19434). The experiment can be described thus: bacterial proliferation assay, E. faecium. It is filed as cell-based. As to conditions: read-out: Bacterial Proliferation EC50 E. faecium. Here is the method: (§1) All compounds were evaluated for inhibiting the proliferation of E. coli and each of the ESKAPE bacteria. Results presented represent the averages of EC50 values obtained from at least four replicates. Evaluating compounds for inhibition of bacterial cell proliferation.
(§2) Growth Media: E. coli were grown with LB medium and all ESKAPE bacteria were grown in Brain Heart Infusion (BHI) medium (Becton, Dickinson and Company), with all liquid cultures supplemented with 25 mg/L Ca^2+ and 12.5 mg/L Mg^2+ to mimic physiological free concentrations of these cations. A 10 mg/mL Ca^2+ stock solution was prepared by dissolving 1.84 g of CaCl2.2H2O in 50 mL of deionized water, and a 10 mg/mL Mg^2+ stock solution was prepared by dissolving 4.18 g of MgCl2.6H2O in 50 mL deionized water—filter sterilized using 0.2 μm cellulose-acetate filters. 2.5 mL of the sterile 10 mg/mL Ca^2+ stock and 1.25 mL of the sterile 10 mg/mL Mg^2+ stock solutions were added per 1 L of autoclaved LB or BHI media to obtain 25 mg/L Ca^2+ and 12.5 mg/L Mg^2+ ions, respectively.
(§3) General Assay Protocol: Stock bacterial cultures were streaked onto LB or BHI agar plates and grown overnight at 37° C. Fresh aliquots of cation supplemented media were inoculated with single bacterial colonies and the cultures were grown overnight at 37° C. with shaking (240 rpm). The following morning, cultures were diluted 10-fold into fresh media and grown at 37° C. until bacteria had reached mid-log phase growth (OD600˜0.4-0.6). The cultures were then diluted into fresh media to achieve final OD600 readings of 0.017. Aliquots of these diluted cultures (30 μL) were added to clear, flat-bottom 384-well polystyrene plates that were previously stamped with 0.5 μL of test compounds in 20 μL of media (yielding initial OD600=0.01 bacterial cultures). All compounds were tested in dose-response with concentration ranges during the proliferation assays from 100 μM to 46 nM (3-fold dilution series). A second set of baseline control plates were prepared analogously, but without any bacteria added, to correct for possible compound absorbance and/or precipitation. […] Plates were then read at 600 nm using a Molecular Devices SpectraMax Plus384 microplate reader. […] Results presented represent the averages of EC50 values obtained from at least four replicates.
(§4) Evaluating analogs for inhibiting the growth of E. coli and the ESKAPE bacteria. Analogs were initially tested for antibacterial efficacy against representative strains of antibiotic-sensitive E. coli and the ESKAPE bacteria. To determine compound efficacy, bacterial proliferation assays were carried out in liquid media culture supplemented with physiological concentrations of free calcium and magnesium cations. For these assays, bacterial cultures (OD600=0.01) were exposed to test compounds in 8-point, 3-fold dilution series (100 μM to 46 nM concentration range), in 384-well plates. After addition of compounds to cultures, the plates were sealed with Breathe-Easy gas permeable membranes and allowed to grow to mid-log phase (OD600˜0.4-0.6), whereupon final OD600 readings were taken to assess for bacterial growth and inhibition.

Experiment [4] deals with Pseudomonas aeruginosa strain NCTC 10332 (ATCC #10145). The experiment can be described thus: bacterial proliferation assay, P. aeruginosa. The class given is cell-based. As to conditions: read-out: Bacterial Proliferation EC50 P. aeruginosa. Here is the method:
as §1, §2, §3, §4

Experiment [5] relates to Enterobacter cloacae strain CDC 442-68 (ATCC #13047). Briefly: bacterial proliferation assay, E. cloacae. It is filed as cell-based. Particulars: ATCC13047, read-out: Bacterial Proliferation EC50 E. cloacae. As to the method: as §1, §2, §3, §4
For experiment [6], the system named is NEB 5-alpha Escherichia coli. The experiment can be described thus: bacterial proliferation assay, E. coli. It is filed as cell-based. Particulars: Escherichia coli, read-out: Bacterial Proliferation EC50 E. coli. Here is the method: as §1, §2, §3, §4

pEC50, pIC50: −log10 of the molar value.

T1 sequence (P0A6F5 2-548): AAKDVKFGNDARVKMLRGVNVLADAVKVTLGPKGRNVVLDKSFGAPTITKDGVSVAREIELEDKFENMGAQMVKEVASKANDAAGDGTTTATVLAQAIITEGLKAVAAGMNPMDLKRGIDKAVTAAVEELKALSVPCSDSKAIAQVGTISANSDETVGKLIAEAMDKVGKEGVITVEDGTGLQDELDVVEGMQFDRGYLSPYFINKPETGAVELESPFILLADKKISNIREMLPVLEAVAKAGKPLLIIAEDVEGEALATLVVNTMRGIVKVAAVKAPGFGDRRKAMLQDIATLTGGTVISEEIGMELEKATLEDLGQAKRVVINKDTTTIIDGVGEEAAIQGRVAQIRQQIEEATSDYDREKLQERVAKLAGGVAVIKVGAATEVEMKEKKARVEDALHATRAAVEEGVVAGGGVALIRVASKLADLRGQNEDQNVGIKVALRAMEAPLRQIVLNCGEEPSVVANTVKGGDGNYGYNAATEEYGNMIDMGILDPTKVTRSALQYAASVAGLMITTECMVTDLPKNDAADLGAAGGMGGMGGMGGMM

Regarding `COc1ccc(C(=O)N/N=C/c2ccc(O)cc2)cc1` [Compound 35, N′-(4-hydroxybenzylidene)-4-methoxybenzohydrazide], the pIC50 in experiment [1] is less than 4.08; in experiment [2], less than 4.25. The pEC50 in experiment [3], in experiment [4], in experiment [5] and in experiment [6] was less than 4.00 throughout.
On to `O=C(N/N=C/c1cccc2ncccc12)c1ccccc1` [Compound 32, N′-(quinolin-5-ylmethylene)benzohydrazide], for which the results for the pIC50 in experiment [1] and in experiment [2] were less than 4.08 and less than 4.25, respectively. For the same compound, the pEC50 in experiment [3], in experiment [4], in experiment [5] and in experiment [6] was less than 4.00 each time.
Turning to `O=C(N/N=C/c1ccc(O)cc1)c1ccccc1` [Compound 36, N′-(4-hydroxybenzylidene)benzohydrazide], the pIC50 is less than 4.08 in experiment [1] and less than 4.25 in experiment [2]. Besides, the pEC50 in experiment [3], in experiment [4], in experiment [5] and in experiment [6] was less than 4.00 throughout.
As to `O=Cc1ccc(O)c2ncccc12` [Compound 40, reference compound], the pIC50 is less than 4.08 in experiment [1] and less than 4.25 in experiment [2]. Moreover, the pEC50 is 5.14 in experiment [3], less than 4.00 in experiment [4], 4.62 in experiment [5] and 4.85 in experiment [6].
`CCOc1ccc(S(=O)(=O)Nc2ccc(C(=O)N/N=C/c3ccc(O)c4ncccc34)cc2)cc1` [Compound 15, 4-ethoxy-N-(4-(2-((8-hydroxyquinolin-5-yl)methylene)hydrazine-1-carbonyl)phenyl)benzenesulfonamide]: the pIC50 is 5.51 in experiment [1] and less than 4.25 in experiment [2]. The pEC50 in experiment [3], in experiment [4], in experiment [5] and in experiment [6] was less than 4.00 in each case.
Take `O=C(N/N=C/c1ccc(O)c2ncccc12)c1ccccc1` [Compound 5, N′-((8-hydroxyquinolin-5-yl)methylene)benzohydrazide]: the pIC50 in experiment [1] is less than 4.08; in experiment [2] it was less than 4.25. For the same compound, the pEC50 is less than 4.00 in experiment [3], less than 4.00 in experiment [4], 4.10 in experiment [5] and 4.20 in experiment [6].
For the compound `O=C(N/N=C/c1ccc(O)c2ncccc12)c1ccccc1Oc1ccccc1` [Compound 10, N′-((8-hydroxyquinolin-5-yl)methylene)-2-phenoxybenzohydrazide], the pIC50 in experiment [1] is 4.82; in experiment [2] it was less than 4.25. Moreover, the pEC50 in experiment [3] is less than 4.00; in experiment [4], 4.09; in experiment [5], less than 4.00; in experiment [6] it was less than 4.00.
In the case of `O=C(N/N=C/c1ccc(O)c2ncccc12)c1ccc(NS(=O)(=O)c2cccs2)cc1` [Compound 13, N-(4-(2-((8-hydroxyquinolin-5-yl)methylene)hydrazine-1-carbonyl)phenyl)thiophene-2-sulfonamide], the pIC50 in experiment [1] is 5.72; in experiment [2] it was less than 4.25. In addition, the pEC50 in experiment [3], in experiment [4], in experiment [5] and in experiment [6] was less than 4.00 in each case.
Consider `O=[N+]([O-])c1ccc(O)c2ncccc12` [Nitroxoline, reference compound], for which the pIC50 is 4.57 in experiment [1] and less than 4.25 in experiment [2]. The pEC50 in experiment [3] was 4.74; in experiment [4] it was 4.00; in experiment [5], 5.18; in experiment [6], 5.40.
With `O=C1CN(/N=C/c2ccc(O)c3ncccc23)C(=O)N1` [Compound 2, 1-(((8-hydroxyquinolin-5-yl)methylene)amino)imidazolidine-2,4-dione], the pIC50 in experiment [1] was less than 4.08; in experiment [2], less than 4.25. Further, the pEC50 in experiment [3] is less than 4.00; in experiment [4], less than 4.00; in experiment [5], less than 4.00; in experiment [6], 4.10.
Regarding `O=C(N/N=C/c1ccc(O)c2ccccc12)c1ccccc1` [Compound 30, N′-((4-hydroxynaphthalen-1-yl)methylene)benzohydrazide], the pIC50 in experiment [1] was less than 4.08; in experiment [2], less than 4.25. The pEC50 in experiment [3], in experiment [4], in experiment [5] and in experiment [6] was less than 4.00 in each case.
Regarding `COc1ccc(C(=O)N/N=C/c2cccc3ncccc23)cc1` [Compound 31, 4-methoxy-N′-(quinolin-5-ylmethylene)benzohydrazide], the pIC50 in experiment [1] was less than 4.08; in experiment [2], less than 4.25. Besides, the pEC50 in experiment [3], in experiment [4], in experiment [5] and in experiment [6] was less than 4.00 in each case.
Turning to `CCN(CC)S(=O)(=O)c1cccc(C(=O)N/N=C/c2ccc([N+](=O)[O-])o2)c1` [Compound 25, N,N-diethyl-3-(2-((5-nitrofuran-2-yl)methylene)hydrazine-1-carbonyl)benzenesulfonamide], the pIC50 was 5.22 in experiment [1] and less than 4.25 in experiment [2]. In addition, the pEC50 in experiment [3], in experiment [4], in experiment [5] and in experiment [6] was less than 4.00 each time.
As to `O=C(N/N=C/c1ccc(O)c2ncccc12)c1ccc(Cl)s1` [Compound 4, 5-chloro-N′-((8-hydroxyquinolin-5-yl)methylene)thiophene-2-carbohydrazide], the pIC50 in experiment [1] was 5.40; in experiment [2], less than 4.25. Besides, the pEC50 was 4.15 in experiment [3], less than 4.00 in experiment [4], less than 4.00 in experiment [5] and less than 4.00 in experiment [6].

These data come from patent US20220009914A1, “Analogs of Nitrofuran Antibiotics to Combat Resistance” (The Trustees of Indiana University, priority 2020, published 2022).
